Assay results from article PMC5385520 (Scientific Reports, 2017).
Like-named read-outs stand apart in the source and are kept apart here.

How the values were obtained:
[1] = molecular target: T1, hDDO (human D-aspartate oxidase) (Homo sapiens, UniProt Q99489); test: biochemical; set-up: gene DDO
T1 sequence (Q99489 1-341): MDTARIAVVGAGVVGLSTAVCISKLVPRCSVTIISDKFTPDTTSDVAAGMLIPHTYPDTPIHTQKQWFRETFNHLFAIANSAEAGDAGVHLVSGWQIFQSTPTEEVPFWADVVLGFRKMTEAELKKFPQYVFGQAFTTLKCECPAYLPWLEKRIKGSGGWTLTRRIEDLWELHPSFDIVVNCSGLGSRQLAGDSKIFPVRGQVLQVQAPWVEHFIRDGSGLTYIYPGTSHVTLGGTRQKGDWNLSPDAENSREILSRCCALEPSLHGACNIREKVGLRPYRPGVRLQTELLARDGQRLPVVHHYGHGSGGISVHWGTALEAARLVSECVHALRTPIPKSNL

[2] = molecular target: T1, hDDO (human D-aspartate oxidase); test: coupled HRP / Amplex UltraRed fluorescence assay; format: biochemical; set-up: gene DDO; recombinant
[3] = molecular target: T2, mDDO (mouse D-aspartate oxidase) (Mus musculus, UniProt Q922Z0); test: coupled HRP / Amplex UltraRed fluorescence assay; format: biochemical; settings: D-Asp 7.5 mM; FAD 4 and 100 μM; inactive up to 300 μM
T2 construct: gene Ddo; recombinant
T2 sequence (Q922Z0 1-341): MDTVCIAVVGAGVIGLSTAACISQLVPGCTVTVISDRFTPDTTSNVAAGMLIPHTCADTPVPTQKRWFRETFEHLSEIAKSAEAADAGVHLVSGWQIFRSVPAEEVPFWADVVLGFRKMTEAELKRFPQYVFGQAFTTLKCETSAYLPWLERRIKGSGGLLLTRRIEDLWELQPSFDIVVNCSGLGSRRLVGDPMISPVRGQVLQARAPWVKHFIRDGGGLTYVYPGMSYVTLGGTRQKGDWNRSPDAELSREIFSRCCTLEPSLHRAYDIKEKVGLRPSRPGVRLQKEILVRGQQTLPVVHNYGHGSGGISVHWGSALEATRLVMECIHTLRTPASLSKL

[4] = read-out: Concentration (μM) / 1000
[5] = read-out: Concentration (μM) / 100

Row | Structure (SMILES) | activity at 1000 µM [2, 4] [%] | activity at 1000 µM [2, 5] [%] | other results
1 | Cc1cc2c(s1)Nc1ccccc1N=C2N1CCN(C)CC1 [olanzapine] | – | – | IC50 [1]: 23.4 ± 1.6 µM
2 | CC(NC(C)(C)C)C(=O)c1cccc(Cl)c1 (stereo not drawn) [bupropion] | 89 | – | –
3 | O=C(CCCN1CCC(O)(c2ccc(Cl)cc2)CC1)c1ccc(F)cc1 [haloperidol] | – | 100 | –
4 | CN(C)CCCN1c2ccccc2Sc2ccc(Cl)cc21 [chlorpromazine] | > 90 | – | –
5 | CN1CCN(C2=Nc3cc(Cl)ccc3Nc3ccccc32)CC1 [clozapine] | – | > 95 | coupled HRP / Amplex UltraRed fluorescence assay [3]: both mDDO and hDDO was unaffected by clozapine at all concentrations tested
